As a reminder, the IC50 is the midpoint of a concentration-inhibition curve.

The record followed here is US20260022142A1, “MACROCYCLIC IMMUNOMODULATORS” (Bristol-Myers Squibb Company, priority 2022, published 2026).

Bridge positions count the residues as written; N and C are the ends. Square brackets hold non-standard residues; d marks the D form. Peptide text beside a SMILES is read from it. * marks the point of attachment. ξ: configuration not given here. Phe(4-CONH2) = NC(=O)c1ccc(C[C@H](N)C(=O)O)cc1; Phe(4-COOH) = N[C@@H](Cc1ccc(C(=O)O)cc1)C(=O)O; Bip = N[C@@H](Cc1ccc(-c2ccccc2)cc1)C(=O)O; Phe(3-Me) = Cc1cccc(C[C@H](N)C(=O)O)c1; Phe(4-F) = N[C@@H](Cc1ccc(F)cc1)C(=O)O; Val(3-OH) = CC(C)(O)[C@H](N)C(=O)O; 4Pal = N[C@@H](Cc1ccncc1)C(=O)O; Cha = N[C@@H](CC1CCCCC1)C(=O)O; Cit = NC(=O)NCCC[C@H](N)C(=O)O; Ile(3ξ) = CCC(C)[C@H](N)C(=O)O; Thr(3ξ) = CC(O)[C@H](N)C(=O)O; dDab = NCC[C@@H](N)C(=O)O; Carboxymethyl = O=C(O)C*; Orn = NCCC[C@H](N)C(=O)O; Aun = NCCCCCCCCCCC(=O)O; Dab = NCC[C@H](N)C(=O)O; AEEA = NCCOCCOCC(=O)O

T1 sequence (Q15116 25-288): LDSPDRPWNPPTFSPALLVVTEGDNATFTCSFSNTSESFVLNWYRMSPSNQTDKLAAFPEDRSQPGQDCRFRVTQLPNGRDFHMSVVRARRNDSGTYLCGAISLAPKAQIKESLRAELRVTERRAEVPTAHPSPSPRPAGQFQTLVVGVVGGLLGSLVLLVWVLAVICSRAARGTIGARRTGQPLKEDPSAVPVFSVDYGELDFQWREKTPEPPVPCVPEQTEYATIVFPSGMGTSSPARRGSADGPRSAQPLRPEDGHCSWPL

The test has as its target T1, PD-1/PD-L1 interaction (PE-labeled human PD-L1-Ig binding to Jurkat cell line over-expressing human PD-1) (Homo sapiens, UniProt Q15116).
T1 construct: expressed in transfected cells; host or cells: Jurkat
Description: Jurkat-PD-1 Cell Binding High-Content Screening Assay (CBA). The format is cell-based. To be noted: Jurkat cell line over-expressing human PD-1; PE-labeled PD-L1-Ig 20 nM final; read-out: Jurkat hPD1-PDL1 IC50. Put shortly:
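Binding of fluorescent PD-L1-Ig (phycoerythrin on Ig tag, 20 nM final, 1 h) measured by high-content imaging of fixed, Hoechst-counterstained Jurkat-hPD-1 cells. Compound added 2 h at 37° C beforehand, in DMEM with 10% fetal calf serum.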
On to `Cc1cccc(C[C@@H]2NC(=O)[C@H](CC(=O)O)NC(=O)[C@H](Cc3ccc(OCC(=O)O)cc3)NC(=O)[C@H](Cc3ccncc3)NC(=O)CSC[C@@H](C(=O)N[C@@H](CCN)C(=O)NCCCCCCCCCCC(=O)O)NC(=O)[C@H](C(C)O)NC(=O)[C@H](C(C)(C)O)NC(=O)[C@H](CC3CCCCC3)NC(=O)[C@H](Cc3cnc[nH]3)NC(=O)[C@@H](CC(C)C)NC(=O)[C@H](CCCN)NC(=O)[C@H](Cc3ccc(O)cc3)NC(=O)[C@H](Cc3ccc(-c4ccccc4)cc3)NC(=O)[C@H](Cc3ccc(C(N)=O)cc3)NC2=O)c1` (stereo partly drawn) [Compound 3728] ({CH2CO}-[4Pal]Y(Carboxymethyl)D[Phe(3-Me)][Phe(4-CONH2)][Bip]Y[Orn][dL]H[Cha][Val(3-OH)][Thr(3ξ)]C[Dab][Aun]-OH; thioether N-14), for which the IC50 amounted to 25.6 nM.
On to `Cc1cccc(C[C@@H]2NC(=O)[C@H](CC(=O)O)NC(=O)[C@H](Cc3ccc(OCC(=O)O)cc3)NC(=O)[C@H](C(C)O)NC(=O)CSC[C@@H](C(=O)N[C@@H](CCN)C(=O)NCCCCCCCCCCC(=O)O)NC(=O)[C@H](C(C)O)NC(=O)[C@H](C(C)(C)O)NC(=O)[C@H](CC3CCCCC3)NC(=O)[C@H](Cc3cnc[nH]3)NC(=O)[C@@H](CC(C)C)NC(=O)[C@H](CCCN)NC(=O)[C@H](Cc3ccc(O)cc3)NC(=O)[C@H](Cc3ccc(-c4ccccc4)cc3)NC(=O)[C@H](Cc3ccc(C(N)=O)cc3)NC2=O)c1` (stereo partly drawn) [Compound 3729] ({CH2CO}-[Thr(3ξ)]Y(Carboxymethyl)D[Phe(3-Me)][Phe(4-CONH2)][Bip]Y[Orn][dL]H[Cha][Val(3-OH)][Thr(3ξ)]C[Dab][Aun]-OH; thioether N-14), for which the IC50 is 30.3 nM.
As to `Cc1cccc(C[C@@H]2NC(=O)[C@H](CC(=O)O)NC(=O)[C@H](Cc3ccc(OCC(=O)O)cc3)NC(=O)[C@H](Cc3ccncc3)NC(=O)CSC[C@@H](C(=O)NCCOCCOCC(=O)NCCCCCCCCCCC(=O)O)NC(=O)[C@H](C(C)O)NC(=O)[C@H](C(C)(C)O)NC(=O)[C@H](CC3CCCCC3)NC(=O)[C@H](CCN)NC(=O)[C@@H](CC(C)C)NC(=O)[C@H](CCCN)NC(=O)[C@H](Cc3ccc(O)cc3)NC(=O)[C@H](Cc3ccc(-c4ccccc4)cc3)NC(=O)[C@H](Cc3ccc(C(N)=O)cc3)NC2=O)c1` (stereo partly drawn) [Compound 3730] ({CH2CO}-[4Pal]Y(Carboxymethyl)D[Phe(3-Me)][Phe(4-CONH2)][Bip]Y[Orn][dL][Dab][Cha][Val(3-OH)][Thr(3ξ)]C[AEEA][Aun]-OH; thioether N-14), the half-maximal inhibitory concentration (IC50) was 22.8 nM.
Consider `Cc1cccc(C[C@@H]2NC(=O)[C@H](CC(=O)O)NC(=O)[C@H](Cc3ccc(OCC(=O)O)cc3)NC(=O)[C@H](CCN)NC(=O)CSC[C@@H](C(=O)N[C@@H](CCN)C(=O)NCCCCCCCCCCC(=O)O)NC(=O)[C@H](CO)NC(=O)[C@H](C(C)(C)O)NC(=O)[C@H](CC3CCCCC3)NC(=O)[C@H](Cc3cnc[nH]3)NC(=O)[C@@H](CC(C)C)NC(=O)[C@H](CCCN)NC(=O)[C@H](Cc3ccc(OCC(=O)O)cc3)NC(=O)[C@H](Cc3ccc(-c4ccccc4)cc3)NC(=O)[C@H](Cc3ccc(F)cc3)NC2=O)c1` [Compound 3731] ({CH2CO}-[Dab]Y(Carboxymethyl)D[Phe(3-Me)][Phe(4-F)][Bip]Y(Carboxymethyl)[Orn][dL]H[Cha][Val(3-OH)]SC[Dab][Aun]-OH; thioether N-14), for which the IC50 is 16.9 nM.
For `Cc1cccc(C[C@@H]2NC(=O)[C@H](CC(=O)O)NC(=O)[C@H](Cc3ccc(F)cc3)NC(=O)[C@H](CCN)NC(=O)CSC[C@@H](C(=O)N[C@@H](CCN)C(=O)NCCCCCCCCCCC(=O)O)NC(=O)[C@H](CO)NC(=O)[C@H](C(C)(C)O)NC(=O)[C@H](CC3CCCCC3)NC(=O)[C@H](Cc3cnc[nH]3)NC(=O)[C@@H](CC(C)C)NC(=O)[C@H](CCCN)NC(=O)[C@H](Cc3ccc(OCC(=O)O)cc3)NC(=O)[C@H](Cc3ccc(-c4ccccc4)cc3)NC(=O)[C@H](Cc3ccc(OCC(=O)O)cc3)NC2=O)c1` [Compound 3732] ({CH2CO}-[Dab][Phe(4-F)]D[Phe(3-Me)]Y(Carboxymethyl)[Bip]Y(Carboxymethyl)[Orn][dL]H[Cha][Val(3-OH)]SC[Dab][Aun]-OH; thioether N-14), the IC50 was 56.2 nM.
As to `Cc1cccc(C[C@@H]2NC(=O)[C@H](CC(=O)O)NC(=O)[C@H](Cc3ccc(OCC(=O)O)cc3)NC(=O)[C@H](Cc3ccncc3)NC(=O)CSC[C@@H](C(=O)N[C@@H](CCN)C(=O)NCCCCCCCCCCC(=O)O)NC(=O)[C@H](CO)NC(=O)[C@H](C(C)(C)O)NC(=O)[C@H](CC3CCCCC3)NC(=O)[C@H](Cc3c[nH]cn3)NC(=O)[C@@H](CC(C)C)NC(=O)[C@H](CCCN)NC(=O)[C@H](Cc3ccc(OCC(=O)O)cc3)NC(=O)[C@H](Cc3ccc(-c4ccccc4)cc3)NC(=O)[C@H](Cc3ccc(F)cc3)NC2=O)c1` [Compound 3733] ({CH2CO}-[4Pal]Y(Carboxymethyl)D[Phe(3-Me)][Phe(4-F)][Bip]Y(Carboxymethyl)[Orn][dL]H[Cha][Val(3-OH)]SC[Dab][Aun]-OH; thioether N-14), the IC50 was determined as 115 nM.
The value for `Cc1cccc(C[C@@H]2NC(=O)[C@H](CC(=O)O)NC(=O)[C@H](Cc3ccc(F)cc3)NC(=O)[C@H](Cc3ccncc3)NC(=O)CSC[C@@H](C(=O)N[C@@H](CCN)C(=O)NCCCCCCCCCCC(=O)O)NC(=O)[C@H](CO)NC(=O)[C@H](C(C)(C)O)NC(=O)[C@H](CC3CCCCC3)NC(=O)[C@H](Cc3c[nH]cn3)NC(=O)[C@@H](CC(C)C)NC(=O)[C@H](CCCN)NC(=O)[C@H](Cc3ccc(OCC(=O)O)cc3)NC(=O)[C@H](Cc3ccc(-c4ccccc4)cc3)NC(=O)[C@H](Cc3ccc(OCC(=O)O)cc3)NC2=O)c1` [Compound 3734] ({CH2CO}-[4Pal][Phe(4-F)]D[Phe(3-Me)]Y(Carboxymethyl)[Bip]Y(Carboxymethyl)[Orn][dL]H[Cha][Val(3-OH)]SC[Dab][Aun]-OH; thioether N-14) was 128 nM; that for `Cc1cccc(C[C@@H]2NC(=O)[C@H](CC(=O)O)NC(=O)[C@H](Cc3ccc(C(=O)O)cc3)NC(=O)[C@H](Cc3ccncc3)NC(=O)CSC[C@@H](C(=O)NCCOCCOCC(=O)NCCOCCOCC(=O)NCCCCCCCCCCC(=O)O)NC(=O)[C@H](Cc3cnc[nH]3)NC(=O)[C@H](C(C)(C)O)NC(=O)[C@H](CC3CCCCC3)NC(=O)[C@H](CCN)NC(=O)[C@@H](CC(C)C)NC(=O)[C@H](CCCN)NC(=O)[C@H](Cc3ccc(OCC(=O)O)cc3)NC(=O)[C@H](Cc3ccc(-c4ccccc4)cc3)NC(=O)[C@H](Cc3ccc(OCC(=O)O)cc3)NC2=O)c1` [Compound 3735] ({CH2CO}-[4Pal][Phe(4-COOH)]D[Phe(3-Me)]Y(Carboxymethyl)[Bip]Y(Carboxymethyl)[Orn][dL][Dab][Cha][Val(3-OH)]HC[AEEA][AEEA][Aun]-OH; thioether N-14) was 20.6 nM.
For the compound `CC(C)C[C@H]1NC(=O)[C@H](CCCN)NC(=O)[C@H](CCCNC(N)=O)NC(=O)[C@H](Cc2ccc(-c3ccccc3)cc2)NC(=O)[C@H](C(C)C)NC(=O)[C@H](Cc2c[nH]c3ccccc23)NC(=O)[C@H](CC(=O)O)NC(=O)[C@H](Cc2ccc(OCC(=O)O)cc2)NC(=O)[C@H](C(C)O)NC(=O)CSC[C@@H](C(=O)N[C@@H](CCN)C(=O)NCCOCCOCC(=O)NCCCCCCCCCCC(=O)O)NC(=O)[C@H](C(C)O)NC(=O)[C@H](C(C)(C)O)NC(=O)[C@H](CC2CCCCC2)NC(=O)[C@H](CCN)NC1=O` (stereo partly drawn) [Compound 3736] ({CH2CO}-[Thr(3ξ)]Y(Carboxymethyl)DWV[Bip][Cit][Orn][dL][Dab][Cha][Val(3-OH)][Thr(3ξ)]C[Dab][AEEA][Aun]-OH; thioether N-14), the IC50 was 18.5 nM.
`Cc1cccc(C[C@@H]2NC(=O)[C@H](CC(=O)O)NC(=O)[C@H](Cc3ccc(OCC(=O)O)cc3)NC(=O)[C@H](C(C)O)NC(=O)CSC[C@@H](C(=O)N[C@@H](CCN)C(=O)NCCOCCOCC(=O)NCCCCCCCCCCC(=O)O)NC(=O)[C@H](CCC(=O)O)NC(=O)[C@H](C(C)C)NC(=O)[C@H](CC3CCCCC3)NC(=O)[C@H](CCN)NC(=O)[C@@H](CC(C)C)NC(=O)[C@H](CCCN)NC(=O)[C@H](Cc3ccc(OCC(=O)O)cc3)NC(=O)[C@H](Cc3ccc(-c4ccccc4)cc3)NC(=O)[C@H](Cc3ccc(C(=O)O)cc3)NC2=O)c1` (stereo partly drawn) [Compound 3737] ({CH2CO}-[Thr(3ξ)]Y(Carboxymethyl)D[Phe(3-Me)][Phe(4-COOH)][Bip]Y(Carboxymethyl)[Orn][dL][Dab][Cha]VEC[Dab][AEEA][Aun]-OH; thioether N-14): the 50% inhibitory concentration (IC50) was 10.5 nM.
As to `Cc1cccc(C[C@@H]2NC(=O)[C@H](CC(=O)O)NC(=O)[C@H](Cc3ccc(OCC(=O)O)cc3)NC(=O)[C@H](Cc3ccncc3)NC(=O)CSC[C@@H](C(=O)N[C@H](CCN)C(=O)NCCCCCCCCCCC(=O)O)NC(=O)[C@H](Cc3cnc[nH]3)NC(=O)[C@H](C(C)(C)O)NC(=O)[C@H](CC3CCCCC3)NC(=O)[C@H](CCN)NC(=O)[C@@H](CC(C)C)NC(=O)[C@H](CCCN)NC(=O)[C@H](Cc3ccc(OCC(=O)O)cc3)NC(=O)[C@H](Cc3ccc(-c4ccccc4)cc3)NC(=O)[C@H](Cc3ccc(OCC(=O)O)cc3)NC2=O)c1` [Compound 3738] ({CH2CO}-[4Pal]Y(Carboxymethyl)D[Phe(3-Me)]Y(Carboxymethyl)[Bip]Y(Carboxymethyl)[Orn][dL][Dab][Cha][Val(3-OH)]HC[dDab][Aun]-OH; thioether N-14), the half-maximal inhibitory concentration (IC50) stood at 20.7 nM.
As for `CCC(C)[C@@H]1NC(=O)[C@H](Cc2ccc(-c3ccccc3)cc2)NC(=O)[C@H](Cc2ccc(C(=O)O)cc2)NC(=O)[C@H](Cc2cccc(C)c2)NC(=O)[C@H](CC(=O)O)NC(=O)[C@H](Cc2ccc(C(=O)O)cc2)NC(=O)[C@H](Cc2ccncc2)NC(=O)CSC[C@@H](C(=O)N[C@H](CCN)C(=O)NCCOCCOCC(=O)NCCCCCCCCCCC(=O)O)NC(=O)[C@H](CCC(=O)O)NC(=O)[C@H](C(C)(C)O)NC(=O)[C@H](CC2CCCCC2)NC(=O)[C@H](CCN)NC(=O)[C@@H](CC(C)C)NC(=O)[C@H](Cc2cnc[nH]2)NC1=O` (stereo partly drawn) [Compound 3739] ({CH2CO}-[4Pal][Phe(4-COOH)]D[Phe(3-Me)][Phe(4-COOH)][Bip][Ile(3ξ)]H[dL][Dab][Cha][Val(3-OH)]EC[dDab][AEEA][Aun]-OH; thioether N-14), the 50% inhibitory concentration (IC50) is 40.5 nM.
